Assays:
Assay in all cases: Antifungal Test (agar dilution M.I.C.)
Assay type in all cases: cell-based
Conditions in all cases: Table 2; 37° C., 3 days (72 hours)
[1] = test system: Candida albicans AHU 3656
Protocol: (§1) Respective agar plates were prepared by dissolving compounds under test in aseptic water to make a two fold dilution series, taking each 1 milliliter of said diluted solutions and 9 ml of Sabouraud medium into a petri dish, and sufficiently admixing the same.
(§2) On the other hand, an inoculum was prepared by cultivating an examined fungus (microorganism) on the Sabouraud slant medium and suspending two loopful of the incubated fungus in 10 ml of sterilized physiological saline water.
(§3) One loopful of the inoculum was streaked on the above-mentioned agar plate. After the agar plate was incubated at a defined temperature for a predetermined period of time to determine the minimal inhibitory concentration (M.I.C.).
(§4) Incubation temperature:
(§5) Incubation time: 3 days (72 hours) and
(§6) Incubation time: 3 days (72 hours)
(§7) activity incubation conditions:
(§8) Incubation time 3 days (72 hours)
(§9) Incubation time 7 days (168 hours)
(§10) Incubation time 2 days (48 hours)

[2] = test system: Candida albicans NAKAGAWA IFM 4017
Protocol: as §1, §2, §3, §4, §5, §6, §7, §8, §9, §10

[3] = test system: Candida albicans Yu-1200 IFM 4020
Protocol: as §1, §2, §3, §4, §5, §6, §7, §8, §9, §10

Measured: M.I.C.

C[C@@H]1[C@H](O)[C@@H](C)/C=C/C=C/CC/C=C/C=C/C=C/C=C/C(O[C@H]2O[C@H](C)[C@@H](O)[C@H](N)[C@@H]2O)CC2O[C@](O)(CC(O)C(O)CCC(O)CC(O)CC(O)CC(=O)O[C@H]1C)CC(O)C2C(=O)O (stereo partly drawn) [Nystatin, reference compound]
6.25 µg/mL: all assays above

Source: patent publication US4064169A, “Bis-(meta-amidinophenoxy)-compounds and pharmacologically acceptable acid addition salts thereof” (Eisai Co., Ltd., priority 1976, dated 1977)
